{"source": "patent US20200172473A1", "about": "“DUAL MODULATORS OF FARNESOID X RECEPTOR AND SOLUBLE EPOXIDE HYDROLASE” (JOHANN WOLFGANG GOETHE-UNIVERSITÄT FRANKFURT AM MAIN, priority 2017, published 2020)", "key": {"sEH": {"molecular_target": "T1, sEH (Mus musculus, UniProt P34914)", "T1 construct": "pilot in vivo study of the compound in male wild-type C57BL6/J mice; from tissue; host or cells: male wild-type C57BL/6J mice, in vivo; read-out in plasma", "T1 sequence (P34914 1-554)": "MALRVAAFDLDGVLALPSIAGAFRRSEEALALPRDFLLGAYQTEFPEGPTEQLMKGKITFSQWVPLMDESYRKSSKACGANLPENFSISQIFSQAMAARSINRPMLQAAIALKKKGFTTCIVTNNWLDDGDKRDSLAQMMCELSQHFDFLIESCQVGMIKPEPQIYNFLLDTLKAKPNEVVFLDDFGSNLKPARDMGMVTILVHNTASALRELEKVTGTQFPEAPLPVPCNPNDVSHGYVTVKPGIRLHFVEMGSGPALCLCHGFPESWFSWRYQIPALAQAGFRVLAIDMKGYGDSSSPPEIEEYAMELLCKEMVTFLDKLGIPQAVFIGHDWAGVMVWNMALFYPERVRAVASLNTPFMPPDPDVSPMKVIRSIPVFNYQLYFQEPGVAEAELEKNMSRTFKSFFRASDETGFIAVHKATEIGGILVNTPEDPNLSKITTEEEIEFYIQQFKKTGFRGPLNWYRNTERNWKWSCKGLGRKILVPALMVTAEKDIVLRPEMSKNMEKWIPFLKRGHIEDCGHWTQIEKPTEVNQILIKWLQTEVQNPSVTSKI", "assay": "EET/DHET ratio in mouse plasma", "type": "in vivo", "settings": "mice, 10 mg/kg p.o., 8 h post dose", "description": "To record a pharmacokinetic profile and to evaluate pharmacodynamic data concerning FXR activation and sEH inhibition in vivo, six mice received a single dose of 57 (p.o., 10 mg/kg body weight). Three additional animals served as vehicle control.\nTo evaluate pharmacodynamic effects of 57, mouse plasma was analyzed for EET/DHET ratio, and FXR target gene expression was determined in mouse livers 8 hours post application (FIG. 5B). […] Expression of the PPARγ target gene fatty acid transport protein (FATP) was not affected by 57 in vivo.\nBlood and liver sampling: At six time points (15 min, 30 min, 60 min, 120 min, 240 min and 480 min after application of 57), blood (20 μl) of the six restrained and conscious mice was obtained from the lateral tail vein. For the last time-point (480 min), mice were anesthetized under isoflurane and blood (˜500 μl) was obtained by retro-orbital puncture. A part of the blood was centrifuged (6000 rpm, 10 min, +4° C.) to obtain plasma for quantification of EET/DHET ratio and stored at −80° C. until further evaluation. […]\nEET/DHET ratio analysis from mouse plasma samples (Determination of Epoxyeicosatrienoicacids (EETs) and their metabolites Dihydroxyepoxyeicosatrienoicacids (DHETs) by LCMS/MS): 8.9-EET, 11.12-EET and their dehydro-metabolites content of the extracted samples were analyzed employing liquid chromatography tandem mass spectroscopy (LC-MS/MS). […]"}, "[1]": {"assay": "observation of animals in the pilot in vivo study", "parameters": "species or system mouse", "settings": "single oral dose 10 mg/kg body weight", "description": "Animals and compound application: 9 male C57BL/6JRj mice (23-26 g body weight, purchased from Janvier Labs, France) were used in the present study. The animals were housed in a temperature-controlled room (20-24° C.) and maintained in a 12 h light/12 h dark cycle. Food and water were available ad libitum. The in life phase was performed by the contract research organization Pharmacelsus (Saarbrücken, Germany). All experimental procedures were approved by and conducted in accordance with the regulations of the local Animal Welfare authorities (Landesamt für Gesundheit und Verbraucherschutz, Abteilung Lebensmittel-und Veterinärwesen, Saarbrücken). Six animals received a single oral dose of 10 mg/kg body weight of dual modulator 57 in water containing 1% HPMC/Tween 80 (99:1). Three animals received the vehicle (water containing 1% HPMC/Tween 80 (99:1))."}}, "data": [{"compound": "CC(C)(C)c1ccc(C(=O)NCc2ccc(NS(C)(=O)=O)cc2Cl)cc1", "note": "[compound 57, 4-(tert-Butyl)-N-(2-chloro-4-(methylsulfonamido)benzyl)benzamide]", "values": [{"measurement": "11,12-EET/11,12-DHET ratio in plasma", "setting": "sEH; vehicle 0.15±0.01", "value": "0.25±0.03"}, {"measurement": "8,9-EET/8,9-DHET ratio in plasma", "setting": "sEH; vehicle 0.40±0.03", "value": "0.63±0.03"}, {"measurement": "adverse effects in mice", "setting": "[1]", "value": "no adverse effects"}]}]}
